Measurements published in patent publication US11840686B2, “Modulation of prekallikrein (PKK) expression” (Ionis Pharmaceuticals, Inc., priority 2013, dated 2023).
Strand notation (5' to 3'): a small letter for the sugar, then the base; units joined by * are phosphorothioate-linked, units joined directly phosphodiester-linked; [ ] holds rarer units or linkages, { } end groups; capitals alone tell only the bases. e = 2'-O-(2-methoxyethyl) (MOE); [5mC] = 5-methylcytosine; d = 2'-deoxy (DNA)

Test system: human PKK mRNA
Assay: Antisense inhibition of human PKK mRNA in HepaRG cells, 5,000 nM (Example 2)
Type: cell-based
In short: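 Chimeric MOE gapmers with full phosphorothioate backbones were tested once at 5,000 nM in electroporated HepaRG cells. After about 24 hours, quantitative PCR measured PKK mRNA relative to untreated control cells.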

[1] = HepaRG cells, electroporation with 5,000 nM antisense oligonucleotide, approximately 24 hours, PKK mRNA by RT-PCR (RTS3454), relative to untreated control cells, Table 5 experiment
[2] = human PKK mRNA, HepaRG cells, 5,000 nM antisense oligonucleotide, Table 18
[3] = human PKK mRNA in HepaRG cells, 5-10-5 gapmers, Table 14
[4] = HepaRG cells, electroporation, 5,000 nM antisense oligonucleotide, approx. 24 hours, primer probe set RTS3454, relative to untreated control cells, Table 11
[5] = HepaRG cells, electroporation with 5,000 nM antisense oligonucleotide, approximately 24 hours, PKK mRNA by RT-PCR (RTS3454), relative to untreated control cells, Table 6 experiment
[6] = Table 9 experiment, HepaRG cells, 20,000 cells per well, electroporation with 5,000 nM antisense oligonucleotide, approx. 24 hours, PKK mRNA by RT-PCR (RTS3454), relative to untreated control cells
[7] = Table 10 experiment, HepaRG cells, 20,000 cells per well, electroporation with 5,000 nM antisense oligonucleotide, approx. 24 hours, PKK mRNA by RT-PCR (RTS3454), relative to untreated control cells
[8] = HepaRG cells, 5,000 nM antisense oligonucleotide, 5-10-5 gapmers, Table 17
[9] = HepaRG cells, electroporation, 5,000 nM antisense oligonucleotide, approx. 24 hours, primer probe set RTS3454, relative to untreated control cells, Table 12
[10] = Table 13, human PKK mRNA in HepaRG cells, 5-10-5 gapmers
[11] = HepaRG cells, 5,000 nM antisense oligonucleotide, human PKK mRNA, Table 18
[12] = Table 8, HepaRG cells, electroporation with 5,000 nM antisense oligonucleotide, approx. 24 hours, PKK mRNA by RT-PCR (RTS3454), relative to untreated control cells

Substance: 547281 (antisense eT*eT*eG*e[5mC]*eT*dT*dG*dA*dA*dT*dA*dA*dA*dA*dT*e[5mC]*eA*eT*eT*e[5mC]) [compound 547281]
- % inhibition [1]: 41%

Substance: 548778 (antisense eA*eT*eA*eA*d[5mC]*dA*dG*dT*dA*dT*d[5mC]*dA*d[5mC]*eT*eG*eT*eA) [compound 548778]
- % inhibition [2]: 20%

Substance: 547623 (antisense eT*eG*eT*e[5mC]*eA*d[5mC]*dT*dG*dT*dA*d[5mC]*d[5mC]*dT*dA*dT*eA*eA*e[5mC]*eT*e[5mC]) [compound 547623]
- % inhibition [3]: 81%

Substance: 546378 (antisense eT*eT*eT*eG*e[5mC]*dA*dG*dA*dT*dG*dA*dG*dG*dA*d[5mC]*e[5mC]*e[5mC]*e[5mC]*e[5mC]*e[5mC]) [compound 546378]
- % inhibition [4]: 79%

Substance: 547333 (antisense eT*eG*eT*e[5mC]*eT*d[5mC]*dG*dA*dT*dG*dG*d[5mC]*dA*dA*dG*e[5mC]*eA*e[5mC]*eT*eT) [compound 547333]
- % inhibition [5]: 76%

Substance: 546319 (antisense e[5mC]*eA*eG*eT*eG*dT*dA*dA*dT*dT*d[5mC]*dA*dA*dA*dG*eG*eA*eG*e[5mC]*e[5mC]) [compound 546319]
- % inhibition [6]: 50%
- % inhibition [7]: 61%

Substance: 546858 (e[5mC]*eT*eA*eT*eA*dA*d[5mC]*dT*dA*dT*dA*dA*d[5mC]*dA*dG*eT*eA*eT*e[5mC]*eA; antisense) [compound 546858]
- % inhibition [3]: 21%

Substance: 547768 (antisense eT*eT*eG*e[5mC]*e[5mC]*d[5mC]*dT*d[5mC]*dA*d[5mC]*dA*d[5mC]*dA*dT*dT*e[5mC]*eG*eA*eA*eT) [compound 547768]
- % inhibition [8]: 0%

Substance: 547536 (antisense eT*eG*e[5mC]*eA*eT*dA*dG*dA*d[5mC]*d[5mC]*d[5mC]*d[5mC]*dA*dA*d[5mC]*eA*eG*eA*e[5mC]*eA) [compound 547536]
- % inhibition [9]: 48%

Substance: 547505 (antisense eG*eA*e[5mC]*eT*eT*dG*dA*dA*d[5mC]*dT*d[5mC]*dA*dG*dG*dT*eT*eG*eT*eA*eA) [compound 547505]
- % inhibition [4]: 69%

Substance: 548767 (antisense eT*eA*eT*e[5mC]*dA*d[5mC]*dT*dG*dT*d[5mC]*d[5mC]*dT*dA*eT*eA*eT*e[5mC]) [compound 548767]
- % inhibition [2]: 59%

Substance: 546830 (eT*eA*eA*e[5mC]*eA*dG*dT*dA*dT*d[5mC]*dA*d[5mC]*dT*dG*dT*eA*e[5mC]*eT*eA*eG; antisense) [compound 546830]
- % inhibition [10]: 78%

Substance: 548722 (DNA eA*e[5mC]*eT*dG*dT*dA*d[5mC]*dT*dA*dG*dT*dT*dT*e[5mC]*e[5mC]*eT*eA; antisense) [compound 548722]
- % inhibition [11]: 26%

Substance: 548769 (antisense eA*eG*eT*eA*dT*d[5mC]*dA*d[5mC]*dT*dG*dT*d[5mC]*d[5mC]*eT*eA*eT*eA) [compound 548769]
- % inhibition [2]: 64%

Substance: 547300 (antisense eG*eA*eA*e[5mC]*eT*dT*dG*d[5mC]*dT*dG*dG*dA*dA*dG*dA*eA*eA*eA*e[5mC]*eT) [compound 547300]
- % inhibition [1]: 37%

Substance: 547306 (antisense eA*eG*e[5mC]*eA*eA*d[5mC]*d[5mC]*dA*dA*dA*d[5mC]*d[5mC]*dT*dT*dT*eT*e[5mC]*eT*e[5mC]*e[5mC]) [compound 547306]
- % inhibition [1]: 62%

Substance: 546784 (eG*eG*e[5mC]*eA*eG*dG*dG*dA*dG*dG*dT*dG*dG*dA*dT*eT*eA*eT*eT*e[5mC]; antisense) [compound 546784]
- % inhibition [10]: 58%

Substance: 547082 (eT*e[5mC]*eT*e[5mC]*e[5mC]*d[5mC]*dT*dG*dA*dG*dT*d[5mC]*dA*d[5mC]*dA*eG*eT*eG*eG*eA; antisense) [compound 547082]
- % inhibition [8]: 64%

Substance: 547558 (e[5mC]*e[5mC]*e[5mC]*e[5mC]*e[5mC]*dA*dG*dT*dT*d[5mC]*d[5mC]*d[5mC]*dA*dT*dG*e[5mC]*eA*eA*eG*eG; antisense) [compound 547558]
- % inhibition [10]: 52%

Substance: 546228 (antisense eG*eT*eG*eA*e[5mC]*dT*d[5mC]*dG*dA*dT*dT*dT*dT*d[5mC]*d[5mC]*eA*eT*eA*e[5mC]*eA) [compound 546228]
- % inhibition (Table 7, HepaRG cells, electroporation with 5,000 nM antisense oligonucleotide, approx. 24 hours, PKK mRNA by RT-PCR (RTS3454), relative to untreated control cells): 60%

Substance: 546390 (eG*eT*e[5mC]*eA*eG*d[5mC]*d[5mC]*d[5mC]*d[5mC]*dT*dG*dG*dT*dT*dA*e[5mC]*eG*eG*e[5mC]*eG; antisense) [compound 546390]
- % inhibition [4]: 70%

Substance: 546308 (antisense eA*e[5mC]*eT*eT*eT*dA*dT*dA*dG*dT*dT*dT*dT*dG*dG*eT*eG*eA*eA*eT) [compound 546308]
- % inhibition [6]: 57%
- % inhibition [7]: 43%

Substance: 546501 (eT*eT*eT*e[5mC]*e[5mC]*dA*dT*dG*d[5mC]*dA*dT*dA*d[5mC]*dT*d[5mC]*eG*e[5mC]*e[5mC]*eT*eT; antisense) [compound 546501]
- % inhibition [9]: 53%

Substance: 547289 (antisense eT*eT*e[5mC]*eA*eT*dA*dG*dA*dG*dT*dT*dG*dA*dG*dT*e[5mC]*eA*eG*eA*e[5mC]) [compound 547289]
- % inhibition [1]: 74%

Substance: 547582 (eT*eA*eT*eA*eT*d[5mC]*dA*d[5mC]*dT*dG*dT*d[5mC]*d[5mC]*dT*dA*eT*eA*eA*e[5mC]*eT; antisense) [compound 547582]
- % inhibition [10]: 22%

Substance: 548725 (DNA eA*eT*e[5mC]*dA*d[5mC]*dT*dG*dT*dA*d[5mC]*dT*dA*dG*eT*eT*eT*e[5mC]; antisense) [compound 548725]
- % inhibition [11]: 32%

Substance: 547315 (antisense eA*eA*e[5mC]*eT*eG*d[5mC]*dA*d[5mC]*d[5mC]*dT*dG*dT*dT*d[5mC]*dG*eA*eT*eG*eT*eA) [compound 547315]
- % inhibition [5]: 50%

Substance: 546172 (antisense eA*eA*e[5mC]*eA*e[5mC]*dT*dA*dT*d[5mC]*dT*dT*dT*d[5mC]*dA*dA*eG*eA*eA*eG*e[5mC]) [compound 546172]
- % inhibition [1]: 81%

Substance: 547494 (antisense eT*eG*eG*eT*eG*dA*d[5mC]*dT*dG*d[5mC]*dA*dT*d[5mC]*dT*dG*eA*eG*e[5mC]*eT*eT) [compound 547494]
- % inhibition [4]: 70%

Substance: 546167 (e[5mC]*eT*e[5mC]*e[5mC]*eA*dT*dG*dT*d[5mC]*dA*dT*dT*dG*dA*dT*eT*eG*eA*eA*e[5mC]; antisense) [compound 546167]
- % inhibition [1]: 73%

Substance: 547039 (eT*e[5mC]*eT*e[5mC]*eT*dA*dT*dA*d[5mC]*dA*dG*d[5mC]*dT*dG*dG*eG*e[5mC]*eA*e[5mC]*eA; antisense) [compound 547039]
- % inhibition [8]: 0%

Substance: 546294 (antisense eG*eT*e[5mC]*e[5mC]*eT*dA*dT*dG*dA*dG*dT*dG*dA*d[5mC]*d[5mC]*e[5mC]*eT*e[5mC]*e[5mC]*eA) [compound 546294]
- % inhibition [12]: 72%

Substance: 547693 (antisense eT*e[5mC]*eA*e[5mC]*eT*dG*dT*dA*d[5mC]*d[5mC]*dT*dA*dT*dA*dA*e[5mC]*eT*eG*eT*eA) [compound 547693]
- % inhibition (HepaRG cells, 5,000 nM antisense oligonucleotide, 5-10-5 gapmers, Table 16): 61%

Substance: 547724 (eG*eA*eT*eG*e[5mC]*dA*dT*d[5mC]*d[5mC]*dA*dA*d[5mC]*dA*d[5mC]*dT*eT*eA*e[5mC]*e[5mC]*e[5mC]; antisense) [compound 547724]
- % inhibition [8]: 16%

Substance: 546381 (antisense eG*eA*eA*eG*eA*dT*dG*d[5mC]*d[5mC]*dA*d[5mC]*dT*d[5mC]*dT*d[5mC]*e[5mC]*eA*eT*eG*e[5mC]) [compound 546381]
- % inhibition [4]: 73%

Substance: 547429 (eA*eA*eT*e[5mC]*eT*d[5mC]*dA*dA*dA*dG*dA*dG*dT*dA*dA*e[5mC]*e[5mC]*eA*eG*eA; antisense) [compound 547429]
- % inhibition [12]: 81%
